Measured values from patent US9815847B2 (Icahn School of Medicine at Mount Sinai, priority 2013, dated 2017).

Assays:
Experiment in all cases: Cytotoxicity assay, dose response end point
Type in all cases: cell-based
BXPC-3 = details: Homo sapiens; BXPC-3, pancreatic adenocarcinoma; 96 h
Experimental: (§1) The following tumor cell lines were tested using a dose response end point assay system with compound (8h). The cells were grown in either DMEM or RPMI supplemented with 10% fetal bovine serum and 1 unit/mL Penicillin-Streptomycin solution. The tumor cells were plated into 6-well dishes at a cell density of 1.0×10^5 cells/mL/well and the test compound was added 24 h. later at various concentrations. Cell counts were determined from duplicate wells after 96 h. of treatment. The total number of viable cells was determined by trypan blue exclusion.

MES-SA = details: Homo sapiens, uterine sarcoma, 96 h
Experimental: as §1

HFL-1 = details: Homo sapiens, HFL1; HFL-1, fetal lung fibroblast; 96 h
Experimental: as §1

HELA = details: Homo sapiens, Cervical adenocarinoma, 96 h
Experimental: as §1

HL-60/MX2 = details: Homo sapiens, HL60/MX2; HL-60/MX2, promyelocytic leukaemia; 96 h
Experimental: as §1

SU.86.86 = details: Homo sapiens; SU.86.86, pancreatic ductal carcinoma; 96 h
Experimental: as §1

BT474 = details: Homo sapiens, BT-474; BT474, Breast carcinoma; 96 h
Experimental: as §1

DAUDI = details: Homo sapiens, Burkitt's lymphoma, 96 h
Experimental: as §1

KG-1a = details: Homo sapiens, acute myelogenous leukemia, 96 h
Experimental: as §1

32D-T315I = details: chronic myelogenous leukemia, 96 h
Experimental: as §1

PANC 10.05 = details: Homo sapiens, Panc1005; PANC 10.05, pancreatic adenocarcinoma; 96 h
Experimental: as §1

CAPAN-1 = details: Homo sapiens; CAPAN-1, pancreatic ductal adenocarcinoma; 96 h
Experimental: as §1

RAJI = details: Homo sapiens, Burkitt's lymphoma, 96 h
Experimental: as §1

Nalmalwa = details: Burkitt's lymphoma, 96 h
Experimental: as §1

K562 = details: Homo sapiens; K562, chronic myelogenous leukemia; 96 h
Experimental: as §1

HEL = details: human erythroleukemia, 96 h
Experimental: as §1

MIA-PaCa-2 = details: Homo sapiens; MIA-PaCa-2, pancreatic carcinoma; 96 h
Experimental: as §1

MOLT-4 = details: Homo sapiens; MOLT-4, acute lymphoblastic leukemia; 96 h
Experimental: as §1

HT-29 = details: Homo sapiens; HT-29, colonic adenocarcinoma; 96 h
Experimental: as §1

MES-SA/DX5 = details: Homo sapiens; MES-SA/DX5, Uterine sarcoma; 96 h
Experimental: as §1

## CN1CCN(c2ccc(Nc3ncc(/C=C/C#N)c(NC4CCCC4)n3)cc2)CC1 [Compound 8h, 3-{4-Cyclopentylamino-2-[4-(4-methylpiperazin-1-yl)phenylamino]pyrimidin-5-yl}acrylonitrile]
BXPC-3
  GI50: 100 nM
MES-SA
  GI50: 20 nM
HFL-1
  GI50: 100 nM
HELA
  GI50: > 5000 nM
HL-60/MX2
  GI50: 250 nM
SU.86.86
  GI50: 5000 nM
BT474
  GI50: 2500 nM
DAUDI
  GI50: 100 nM
KG-1a
  GI50: < 20 nM
32D-T315I
  GI50: 500 nM
PANC 10.05
  GI50: > 5000 nM
CAPAN-1
  GI50: 100 nM
RAJI
  GI50: < 20 nM
Nalmalwa
  GI50: 200 nM
K562
  GI50: 40 nM
HEL
  GI50: < 250 nM
MIA-PaCa-2
  GI50: > 5000 nM
MOLT-4
  GI50: 100 nM
HT-29
  GI50: 50 nM
MES-SA/DX5
  GI50: < 20 nM
